Measurements from patent US10265294B2, “Compositions and methods for treating epithelial cancer” (YALE UNIVERSITY, priority 2016, dated 2019).

How the values were obtained:
[1] = tested on: OCSC2 (chemoresistant CD44+/MyD88+ ovarian cancer stem cell clone); assay: Real-time measurement of cell number/cell death and IC50, OCSC2 clone; format: cell-based, human
Protocol: (§1) CD44+/MyD88+ ovarian cancer stem cell clones (OCSC1 and OCSC2) and CD44−/MyD88− ovarian cancer cells (OCC1 and OCC2) were isolated from either tumor tissue or ascites obtained from patients diagnosed with stage III/IV serous ovarian cancer and propagated (Alvero, et al., 2009, Cell Cycle 8:158-166; Chefetz, et al., 2013, Cell Cycle 12:511-521). The epithelial nature of the isolated cells was determined by immunostaining for Ck18. Purity of the cultures based on CD44 expression by flow cytometry and chemoresistance were routinely tested. Stable expression of nuclear-restricted red fluorescent (in OCSCs) or green fluorescent proteins (in OCCs) was performed by transduction using NUCLIGHT® Red or Green Lentivirus Reagent (Essen Bioscience, Ann Arbor, Mich.). Spheroids were formed from OCSCs by culturing in ultra-low attachment multi-well plates (Corning, Inc., Corning, N.Y.).
(§2) Effect of each compound on cell morphology, growth, and viability was assessed using a kinetic live cell imaging system (Incucyte, Essen Bioscience). Proliferation was calculated as previously described (Alvero, et al., 2011, Mol. Cancer Ther. 10:1385-1393) using metrics from either confluence or fluorescent count from nuclear-restricted RFP or GFP. Cell death was quantified; similarly CELLTOX® Green Cytotoxicity Assay (Promega, Madison, Wis.). IC50 was calculated as described using GraphPad Prism (GraphPad Software Inc., LaJolla, Calif.).
(§3) A panel of four different SBP subfamilies with cytotoxic activity against chemoresistant ovarian cancer stem cells were tested for efficacy in inducing ovarian cancer stem cell death. […] The efficacy of each analog was determined based on its IC50.
TRX-E-002 exists as a racemic mixture comprised of two enantiomers, enantiomer A (TRX-E-002-1) and enantiomer B (TRX-E-002-2). Thus, the enantiomers were separated and assessed separately. […]

[2] = tested on: OCSCs (CD44+/MyD88+ ovarian cancer stem cells); assay: OCSC growth, morphology, RFP+ cell count and Celltox cell death (kinetic live cell imaging); format: cell-based, human
Protocol: as §1, §2
In vitro, conventional chemotherapeutic drugs had negligible effect on OCSC growth even in the μM range (FIG. 1B).
TRX-E-002 exists as a racemic mixture comprised of two enantiomers, enantiomer A (TRX-E-002-1) and enantiomer B (TRX-E-002-2). Thus, the enantiomers were separated and assessed separately. To distinguish between an analog's cytostatic or cytotoxic activity, OCSC clones that are stably transfected with nuclear-restricted RFP were used, which allows an accurate quantification of the number of cells and can be multiplexed with CELLTOX® assay to concomitantly measure the number of dead cells.

ERK = assay: Phosphokinase array / Western blot for phosphorylated ERK in OCSCs; format: cell-based, human; conditions: U0126 10 μM, 2 hours; comparable to levels induced by TRX-E-002-1
Protocol: SDS-PAGE and Western blots were performed using 20 μg of total protein lysate as described in Kamsteeg, et al., 2003, Oncogene 22:2611-2620. Antibodies used were: mouse anti-phospho ERK (Santa Cruz Biotechnology, Inc., Dallas, Tex.); rabbit anti-phospho c-Jun, rabbit anti c-Jun, rabbit anti-ERK, rabbit anti-cleaved caspase 3 all from Cell Signaling Technology, Danvers, Mass.; and mouse anti-GAPDH (Sigma-Aldrich).
In order to elucidate the early pathways responsible for the sustained cytotoxic effect observed with TRX-E-002-1, a phosphokinase array was performed. The phosphokinase array detected relative phosphorylation levels of 43 different kinases involved in major signal transduction pathways.
The western blot results also validated the decrease in p-ERK in cells treated with TRX-E-002-1. […] The effect on the phosphorylation status of the kinases (upregulation of p-cJun and downregulation of p-ERK) was observed as early as 2 h post-treatment and maintained up to 24 h (FIG. 4A). The phosphorylation levels of c-Jun and ERK correlate with the differential ability of the two doses of TRX-E-002-1 to induce a sustained cytotoxic effect. […] This correlates with the ability of this dose of TRX-E-002-1 to maintain the upregulation of p-cJun and downregulation of p-ERK even when the compound is removed (FIG. 4B). […]

OCSCs = assay: Cell death of OCSCs with JNK or ERK pathway inhibitor; format: cell-based, human; conditions: U0126 10 μM, 24 hour time-point
Protocol: as §2
Jun N-terminal kinase (JNK) is a stress-activated protein kinase and the main kinase that phosphorylates c-Jun. To determine whether the JNK/Jun pathway is involved in TRX-E-002-1-induced cell death, the JNK inhibitor SP600125 (1,9-Pyrazoloanthrone; a reversible ATP competitive inhibitor selective for JNK 1, 2, and 3) was used. Cells were treated with TRX-E-002-1 in the presence or absence of SP600125.
To determine the importance of downregulating the levels of p-ERK, cells were treated with U0126 (1,4-diamino-2,3-dicyano-1,4-bis(2-aminophenylthio)butadiene) to recapitulate the effect of TRX-E-002-1 on the ERK pathway.

[3] = tested on: co-culture of RFP-labeled OCSC2 and GFP-labeled OCC2; assay: In vitro co-culture model 50% RFP-OCSC2 / 50% GFP-OCC2; format: cell-based; conditions: co-culture 50/50; TRX-E-002-1 0.12 μM, Cisplatin 20 μM
Protocol: as §1, §2
Without wishing to be limited by any theory, response to chemotherapy may be modified by cross-talk among different cancer cell types within the tumor. Thus, to mimic the heterogeneity of ovarian tumors an in vitro co-culture model consisting of RFP-labeled chemoresistant OCSC2 and GFP-labeled chemosensitive OCC2 was used. The co-cultures, which are comprised of 50% RFP-OCSC2 and 50% GFP-OCC2 at time of treatment, were exposed to TRX-E-002-1, cisplatin, or the combination of both. Since GFP-OCC2 has faster doubling time than RFP-OCSC2, it overtook the control co-cultures by the end of the experiment and thus the control co-cultures are mainly comprised of GFP-OCC2 by the 24 h time-point (FIG. 2B).

[4] = tested on: OCSC1 (chemoresistant CD44+/MyD88+ ovarian cancer stem cell clone); assay: Real-time measurement of cell number/cell death and IC50, OCSC1 clone; format: cell-based; conditions: Homo sapiens; screen of 40 SBP analogs, OCSC1 clone (FIG. 1A)
Protocol: CD44+/MyD88+ ovarian cancer stem cell clones (OCSC1 and OCSC2) and CD44−/MyD88− ovarian cancer cells (OCC1 and OCC2) were isolated from either tumor tissue or ascites obtained from patients diagnosed with stage III/IV serous ovarian cancer and propagated (Alvero, et al., 2009, Cell Cycle 8:158-166; Chefetz, et al., 2013, Cell Cycle 12:511-521). The epithelial nature of the isolated cells was determined by immunostaining for Ck18. Purity of the cultures based on CD44 expression by flow cytometry and chemoresistance were routinely tested. […]
as §2, §3

[5] = tested on: chemoresistant ovarian cancer stem cells; assay: OCSC growth and morphology with TRX-E-002-1, AICAR or the combination; format: cell-based, human
Protocol: The effect of each compound on cell growth was assessed using a kinetic live cell imagine system (Incucyte, Essen Bioscience). Proliferation was determined based on either confluence or fluorescent count from nuclear-restricted RFP or GFP. The IC50 values were calculated using GraphPad Prism (GraphPad Software Inc., LaJolla, Calif.). […]

[6] = tested on: i.p. tumors of mCherry+OCSC1-F2 ovarian cancer cells; assay: Recurrent disease xenograft, maintenance treatment after Paclitaxel; format: in vivo
Text: The Yale University Institutional Animal Care and Use Committee approved all in vivo studies described. Intra-peritoneal tumors were established in athymic nude mice using 4×10^6 mCherry+OCSC1-F2 ovarian cancer cells (Craveiro, et al., 2013, Cancer Med. 2:751-762). Injection of cancer cells is designated as day 0 and treatment commenced between day 3-5. Establishment of i.p. tumors was confirmed by live imaging (In-Vivo FX PRO, Bruker Corp., Billerica, Mass.) prior to treatment. TRX-E-002-1 was prepared in 20% Captisol or Dexsolve and administered daily at 50 mg/kg or 100 mg/kg. Paclitaxel was given at 12 mg/kg q3d and Cisplatin at 5 mg/kg weekly. All treatments were given i.p. Tumor growth was monitored q3d by live imaging and response to treatment was assessed using ROI area.
Although the standard of care for ovarian cancer patients (platinum plus taxane) is effective initially, most patients develop recurrent disease. Recurrence is the major cause of mortality in ovarian cancer patients, and thus approaches that can prevent recurrence are critical to improve patient survival. As described elsewhere herein, a unique advantage of the xenograft model is the recapitulation of recurrent disease that is typically observed in patients with ovarian cancer. […] Upon recurrence, tumors acquire resistance and become unresponsive to a second-round of Paclitaxel regimen, as observed in ovarian cancer patients. Thus, the model allows one to assess the value of novel compounds in preventing recurrence when given as maintenance treatment.
Thus mice were given Paclitaxel as initial treatment. […] After the 4th dose of Paclitaxel mice were re-randomized into the different maintenance groups. Here the maintenance protocol consisted of continued treatment with Paclitaxel, or maintenance with TRX-E-002-1 (100 mg/kg), or maintenance with Vehicle control.

`COc1cc(C2COc3c(ccc(O)c3C)C2c2ccc(O)cc2)cc(OC)c1O` (single isomer, unassigned) [TRX-E-002-2] was tested, and the IC50 ([1]; OCSC2, 24 hours (FIG. 1G)) was 10 µM and the “number of nuclear RFP+ cells” value ([2]; RFP OCSC clones, TRX-E-002-1 beginning at the 0.245 μM dose, TRX-E-002-2 except for the very high dose of 10 μM) was “mostly ineffective”.

For `N#CC(=C(N)Sc1ccccc1N)C(C#N)=C(N)Sc1ccccc1N` [U0126, 1,4-diamino-2,3-dicyano-1,4-bis(2-aminophenylthio)butadiene, reference compound], the “levels of p-ERK” value (ERK) was “downregulated” and the “effect on cell death relative to TRX-E-002-1” value (OCSCs) was “not comparable”.

In the case of `N.N.[Cl][Pt][Cl]` [Cisplatin, reference compound], the “number of GFP+ cells (GFP-OCC2)” value [3] is reported as “decrease” and the “number of mCherry+ cells (RFP-OCSC2)” value [3] is reported as “no effect”.

`COc1cc(C2COc3c(ccc(O)c3C)C2c2ccc(O)cc2)cc(OC)c1O` (racemic) [TRX-E-002, 3-(4-hydroxy-3,5-dimethoxyphenyl)-4-(4-hydroxyphenyl)-8-methylchroman-7-ol] was tested, and the IC50 [4] was under 0.245 µM, the IC50 ([1]; Homo sapiens, screen of 40 SBP analogs, OCSC2 clone (FIG. 1A)) was under 0.245 µM and the “apoptotic cells by microscopic evaluation of the cultures” value ([2]; 24 hours, compared with Cisplatin or Paclitaxel treated cultures) was “higher percentage of apoptotic cells”. The “effect on OCSC growth” value ([2]; chemotherapeutic drugs even in the μM range, TRX-E-002 at low concentrations) was “persistent growth inhibitory effect”.

For `NC(=O)c1ncn([C@@H]2O[C@H](CO)[C@@H](O)[C@H]2O)c1N` [AICAR, 5-aminoimidazole-4-carboxamide-1-β-D-ribofuranoside, reference compound], the “cell morphology / apoptotic cells” value ([5]; 48 hours, AICAR at 0.2 mM) was “no effect” and the “effect on cell growth” value ([5]; TRX-E-002-1 25 ng/ml, mono therapies or combination) was “minimal effect”.

`CC(=O)O[C@H]1C(=O)[C@@]2(C)[C@H]([C@H](OC(=O)c3ccccc3)[C@]3(O)C[C@H](OC(=O)[C@H](O)[C@@H](NC(=O)c4ccccc4)c4ccccc4)C(C)=C1C3(C)C)[C@]1(OC(C)=O)CO[C@@H]1C[C@@H]2O` [Paclitaxel, reference compound] was tested, and the “tumor progression during initial treatment” value ([6]; Paclitaxel 4 doses at 12 mg/kg i.p.) was “significant delay in tumor progression”, the “tumor progression during maintenance treatment” value ([6]; after 4th dose of Paclitaxel, TRX-E-002-1 100 mg/kg daily i.p. or continued Paclitaxel) was “tumor progression was observed” and the “gross examination of residual disease” value ([6]; maintenance groups) was “visible carcinomatosis and extensive metastasis”. For the same compound, the “tumor weights at end point compared to control” value ([6]; maintenance groups) was “not”.
